Laboratory results as given in patent publication US20120142667A1, “PYRIMIDINE DERIVATIVES AS ZAP-70 INHIBITORS” (priority 2009, published 2012).

Tests used:
[1] = test system: Calcium Ion Release in Cells; test: calcium release assay (measurement of calcium ion release in cells); format: cell-based; settings: calcium release assay as described in WO-A 2009/080638
[2] = target: T1, ZAP-70 (Homo sapiens, UniProt P43403); test: ZAP-70 kinobeads assay; format: binding; settings: cell lysate
T1 construct: endogenous in cells; host or cells: cell lysate
T1 sequence (P43403 1-619): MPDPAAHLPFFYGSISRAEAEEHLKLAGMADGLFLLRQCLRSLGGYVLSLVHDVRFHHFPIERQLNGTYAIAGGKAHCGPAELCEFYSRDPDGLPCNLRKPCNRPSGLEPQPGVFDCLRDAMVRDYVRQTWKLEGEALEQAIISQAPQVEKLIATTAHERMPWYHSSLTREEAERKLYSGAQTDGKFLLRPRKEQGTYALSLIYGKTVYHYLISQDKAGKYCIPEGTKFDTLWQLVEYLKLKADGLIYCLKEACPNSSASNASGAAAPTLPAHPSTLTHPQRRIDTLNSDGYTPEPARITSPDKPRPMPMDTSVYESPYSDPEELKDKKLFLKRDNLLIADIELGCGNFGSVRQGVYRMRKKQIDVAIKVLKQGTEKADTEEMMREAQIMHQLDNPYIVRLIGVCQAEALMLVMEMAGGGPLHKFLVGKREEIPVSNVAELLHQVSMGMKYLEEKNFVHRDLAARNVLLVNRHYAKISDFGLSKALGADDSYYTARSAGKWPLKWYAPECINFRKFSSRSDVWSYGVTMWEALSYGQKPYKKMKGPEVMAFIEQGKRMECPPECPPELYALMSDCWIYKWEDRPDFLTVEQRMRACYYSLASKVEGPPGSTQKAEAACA
Outline: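 Competition binding: compounds at various concentrations incubated with cell lysate plus affinity matrix bearing immobilized aminopyrido-pyrimidine ligand 24. ZAP-70 retained on beads eluted and quantified by specific-antibody dot blot with infrared detection.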

Structure (SMILES)	IC50 [1] [nM]	IC50 [2] [nM]
COc1ccc(Nc2nc(Nc3cc(OC)c(OCCO)cc3OC)ncc2Cl)c(NS(C)(=O)=O)c1 [Example 110, N-(2-((5-chloro-2-((4-(2-hydroxyethoxy)-2,5-dimethoxyphenyl)amino)pyrimidin-4-yl)amino)-5-methoxyphenyl)methanesulfonamide]	≤ 1000	≤ 100
COc1ccc(Nc2nc(Nc3cc(OCCO)ccc3Cl)ncc2Cl)c(NS(C)(=O)=O)c1 [Example 111, N-(2-((5-chloro-2-((2-chloro-5-(2-hydroxyethoxy)phenyl)amino)pyrimidin-4-yl)amino)-5-methoxyphenyl)methanesulfonamide]	≤ 1000	100 to 1000
COc1ccc(Nc2nc(Nc3cc(CCCO)ccc3OC)ncc2Cl)c(NS(C)(=O)=O)c1 [Example 112, N-(2-(5-chloro-2-(5-(3-hydroxypropyl)-2-methoxyphenylamino)pyrimidin-4-ylamino)-5-methoxyphenyl)methanesulfonamide]	≤ 1000	100 to 1000
COc1ccc(Nc2nc(Nc3cc(CCC(N)=O)ccc3OC)ncc2Cl)c(NS(C)(=O)=O)c1 [Example 113, 3-(3-(5-chloro-4-(4-methoxy-2-(methylsulfonamido)phenylamino)pyrimidin-2-ylamino)-4-methoxyphenyl)propanamide]	≤ 1000	100 to 1000
